The values below come from paper PMC5748279, “Novel Antitubercular 6-Dialkylaminopyrimidine Carboxamides from Phenotypic Whole-Cell High Throughput Screening of a SoftFocus Library: Structure–Activity Relationship and Target Identification Studies” (Journal of Medicinal Chemistry, 2017).

pIC50: −log10 of the molar value. Where two headings read alike, the source gives them in different places.

The test system of test [1] is 13-resistant mutant of Mtb H37Rv. Format: cell-based, Mycobacterium tuberculosis.
For a further test, the target named is (UniProt A0A0H3MC72). Briefly: biochemical. The test is classed as binding, Mycobacterium bovis BCG.
(UniProt A0A0H3MC72), sequence (A0A0H3MC72 1-488): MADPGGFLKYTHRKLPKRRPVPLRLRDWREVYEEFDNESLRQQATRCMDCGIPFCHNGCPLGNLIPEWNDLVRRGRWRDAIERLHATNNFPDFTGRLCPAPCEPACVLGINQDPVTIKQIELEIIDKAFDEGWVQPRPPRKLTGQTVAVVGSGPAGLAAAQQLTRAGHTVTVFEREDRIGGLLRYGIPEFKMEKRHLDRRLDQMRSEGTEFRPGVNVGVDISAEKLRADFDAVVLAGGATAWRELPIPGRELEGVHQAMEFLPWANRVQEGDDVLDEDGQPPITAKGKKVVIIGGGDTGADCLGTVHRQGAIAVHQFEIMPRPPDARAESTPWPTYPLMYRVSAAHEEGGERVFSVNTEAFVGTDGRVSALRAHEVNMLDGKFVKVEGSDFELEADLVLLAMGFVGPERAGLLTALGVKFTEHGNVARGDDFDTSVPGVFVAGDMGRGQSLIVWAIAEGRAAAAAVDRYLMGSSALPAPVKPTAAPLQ
The next test deals with (UniProt A0A0H3MB87). The test is described as follows: biochemical. Format: binding, Mycobacterium bovis BCG.
(UniProt A0A0H3MB87), sequence (A0A0H3MB87 1-463): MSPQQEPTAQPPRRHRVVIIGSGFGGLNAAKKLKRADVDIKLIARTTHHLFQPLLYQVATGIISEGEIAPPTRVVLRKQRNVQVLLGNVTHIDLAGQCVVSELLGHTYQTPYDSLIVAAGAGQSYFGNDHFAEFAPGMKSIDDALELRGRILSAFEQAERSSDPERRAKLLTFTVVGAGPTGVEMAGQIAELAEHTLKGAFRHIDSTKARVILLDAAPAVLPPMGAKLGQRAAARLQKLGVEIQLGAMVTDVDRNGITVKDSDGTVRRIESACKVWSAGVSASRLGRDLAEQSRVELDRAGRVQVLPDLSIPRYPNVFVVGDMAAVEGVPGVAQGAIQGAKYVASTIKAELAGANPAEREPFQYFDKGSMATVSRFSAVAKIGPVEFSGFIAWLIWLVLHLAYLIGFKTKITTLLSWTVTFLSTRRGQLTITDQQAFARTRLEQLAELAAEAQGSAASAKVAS
For a further test, the target named is (UniProt A0A0H3MFG4). Briefly: biochemical. The test is classed as binding, Mycobacterium bovis BCG.
(UniProt A0A0H3MFG4), sequence (A0A0H3MFG4 1-834): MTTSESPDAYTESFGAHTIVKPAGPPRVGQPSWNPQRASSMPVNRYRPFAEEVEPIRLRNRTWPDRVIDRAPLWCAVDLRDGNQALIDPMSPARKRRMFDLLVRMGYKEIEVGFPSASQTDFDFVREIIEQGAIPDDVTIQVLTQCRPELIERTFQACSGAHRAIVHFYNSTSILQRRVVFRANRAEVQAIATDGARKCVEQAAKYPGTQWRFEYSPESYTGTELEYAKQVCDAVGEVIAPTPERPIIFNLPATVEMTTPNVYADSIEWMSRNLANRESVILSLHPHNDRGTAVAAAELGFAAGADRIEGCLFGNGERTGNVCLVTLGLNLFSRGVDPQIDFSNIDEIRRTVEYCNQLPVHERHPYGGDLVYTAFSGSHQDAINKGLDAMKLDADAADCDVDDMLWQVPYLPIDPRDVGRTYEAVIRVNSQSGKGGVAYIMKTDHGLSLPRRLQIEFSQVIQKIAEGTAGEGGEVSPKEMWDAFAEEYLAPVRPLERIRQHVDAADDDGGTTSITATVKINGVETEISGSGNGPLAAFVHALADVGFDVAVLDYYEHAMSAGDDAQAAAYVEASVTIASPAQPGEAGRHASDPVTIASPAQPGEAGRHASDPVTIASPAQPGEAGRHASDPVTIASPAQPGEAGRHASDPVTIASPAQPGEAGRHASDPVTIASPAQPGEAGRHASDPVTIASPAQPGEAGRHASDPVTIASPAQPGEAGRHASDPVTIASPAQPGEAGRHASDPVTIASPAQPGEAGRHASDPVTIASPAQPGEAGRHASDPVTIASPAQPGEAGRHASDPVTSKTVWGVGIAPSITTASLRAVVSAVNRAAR
The target of another test is (UniProt A0A0H3M9R5). The test is described as follows: biochemical. Format: binding, Mycobacterium bovis BCG.
(UniProt A0A0H3M9R5), sequence (A0A0H3M9R5 1-518): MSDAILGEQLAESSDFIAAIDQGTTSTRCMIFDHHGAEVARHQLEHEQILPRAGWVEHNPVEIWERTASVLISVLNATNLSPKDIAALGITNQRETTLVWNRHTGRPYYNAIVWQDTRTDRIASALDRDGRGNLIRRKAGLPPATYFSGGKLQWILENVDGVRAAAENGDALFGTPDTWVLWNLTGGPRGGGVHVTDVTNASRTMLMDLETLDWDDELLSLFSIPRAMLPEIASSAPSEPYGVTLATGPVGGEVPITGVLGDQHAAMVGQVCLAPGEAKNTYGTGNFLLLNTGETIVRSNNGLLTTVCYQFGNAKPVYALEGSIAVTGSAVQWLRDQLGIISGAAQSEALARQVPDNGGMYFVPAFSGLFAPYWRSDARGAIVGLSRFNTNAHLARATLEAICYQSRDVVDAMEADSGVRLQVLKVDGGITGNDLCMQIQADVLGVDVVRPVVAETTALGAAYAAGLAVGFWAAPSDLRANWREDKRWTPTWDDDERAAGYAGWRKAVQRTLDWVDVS

Consider `COc1ccc(NC(=O)c2cc(N(C)Cc3ccccc3)ncn2)cc1` [Compound 1, 6-(Benzyl(methyl)amino)-N-(4-methoxyphenyl)pyrimidine-4-carboxamide], for which the “14 day GAST/Fe MIC99 against 13-resistant mutant” value (“14 day GAST/Fe MIC99” below) in test [1] was more than 160 µM.

For `CN(Cc1ccc(F)cc1)c1cc(C(=O)Nc2ccccc2)ncn1` [Compound 10, 6-((4-Fluorobenzyl)(methyl)amino)-N-phenylpyrimidine-4-carboxamide], the “14 day GAST/Fe MIC99” value in test [1] was more than 160 µM.

As for `COc1ccc(NC(=O)c2cc(N(C)Cc3cccc(F)c3)ncn2)cc1` [Compound 13, 6-((3-Fluorobenzyl)(methyl)amino)-N-(4-methoxyphenyl)pyrimidine-4-carboxamide], the “14 day GAST/Fe MIC99” value in test [1] was more than 160 µM.

As to `CN(Cc1ccc(C(F)(F)F)nc1)c1cc(C(=O)Nc2ccccc2)ncn1` [Compound 20, 6-(Methyl((6-(trifluoromethyl)pyridin-3-yl)methyl)amino)-N-phenylpyrimidine-4-carboxamide], the “14 day GAST/Fe MIC99” value in test [1] is more than 160 µM.

What is called pIC50 is the IC50 on a negative log10 scale, so that one unit is a factor of ten. On to `O=C(Nc1ccccc1)c1ccc(=O)n(Cc2ccc(F)cc2)c1` [Compound 25, 1-(4-Fluorobenzyl)-6-oxo-N-phenyl-1,6-dihydropyridine-3-carboxamide], for which the pIC50 at (UniProt A0A0H3MC72) (read-out: IC50), on (UniProt A0A0H3MB87) (read-out: IC50), on (UniProt A0A0H3MFG4) (read-out: IC50) and on (UniProt A0A0H3M9R5) (read-out: IC50) was not above 4.52 in each case. Besides, the IC50 on (UniProt A0A0H3MC72) (read-out: pIC50 (converted)), at (UniProt A0A0H3MB87) (read-out: pIC50 (converted)), on (UniProt A0A0H3MFG4) (read-out: pIC50 (converted)) and at (UniProt A0A0H3M9R5) (read-out: pIC50 (converted)) was not below 30.2 µM throughout.

As to `CC(C)Oc1ccc(NC(=O)c2cc(N(C)Cc3ccc(F)cc3)ncn2)cc1` [Compound 36, 6-((4-Fluorobenzyl)(methyl)amino)-N-(4-isopropoxyphenyl)pyrimidine-4-carboxamide], the “14 day GAST/Fe MIC99” value in test [1] is more than 160 µM.
